Measurements: PMC6472001, “Phenolic Compounds from Humulus lupulus as Natural Antimicrobial Products: New Weapons in the Fight against Methicillin Resistant Staphylococcus aureus, Leishmania mexicana and Trypanosoma brucei Strains” (Molecules, 2019)

Key:
Assay type in all cases: cell-based
[1] = system: Staphylococcus aureus 8147; test: First screening, agar dilution MIC
Description: (§1) Clinical bacterial isolates from human samples collected in Lille (France) and some collection strains were used. The first screening step on pathogenic bacteria was carried out with crude hydro-alcoholic extracts of different hop parts (Table 1). The second screening was performed using sub-extracts of cones on Gram-positive bacteria, including methicillin-sensitive Staphylococcus aureus (MSSA) and methicillin-resistant Staphylococcus aureus […] (Table 2). These tests were carried out on Petri dishes, Mueller-Hinton Agar (MHA) (Oxoid, UK) was mixed with the plant extract solution in MeOH at 5% (solvent control: 5% MeOH). Final extract concentrations in Petri dishes ranged from 1250 to 4.9 µg/mL. A multi-headed inoculator allowed spotting bacterial strains at 10^5 CFU/mL in cysteinated Ringer (CR) solution (Merck®, France). Minimal Inhibitory Concentrations (MICs) were visually determined after 24 h of incubation at 37 °C.

[2] = system: Corynebacterium T25-17; test: First screening, agar dilution MIC
Description: as §1

[3] = system: Salmonella sp. 11033; test: First screening, agar dilution MIC
Description: as §1

[4] = system: Stenotrophomonas maltophilia; test: First screening, agar dilution MIC
Description: as §1

[5] = system: Escherichia coli 8138; test: First screening, agar dilution MIC
Description: as §1

[6] = system: Streptococcus dysgalactiae T46C14; test: First screening, agar dilution MIC
Description: as §1

[7] = system: Klebsiella pneumoniae 11017; test: First screening, agar dilution MIC
Description: as §1

[8] = system: Streptococcus agalactiae T53C2; test: First screening, agar dilution MIC
Description: as §1

[9] = system: Pseudomonas aeruginosa ATCC 27583; test: First screening, agar dilution MIC
Description: as §1

[10] = system: Enterococcus sp. 8153; test: First screening, agar dilution MIC
Description: as §1

[11] = system: Staphylococcus lugdunensis T26A3; test: First screening, agar dilution MIC
Description: as §1

[12] = system: Enterobacter cloacae 11053; test: First screening, agar dilution MIC
Description: as §1

[13] = system: Escherichia coli 8157; test: First screening, agar dilution MIC
Description: as §1

[14] = system: Serratia marcescens 11056; test: First screening, agar dilution MIC
Description: as §1

[15] = system: Enterobacter cloacae 11051; test: First screening, agar dilution MIC
Description: as §1

[16] = system: Proteus mirabilis 11060; test: First screening, agar dilution MIC
Description: as §1

[17] = system: Escherichia coli ATCC 25922; test: First screening, agar dilution MIC
Description: as §1

[18] = system: Serratia marcescens 11057; test: First screening, agar dilution MIC
Description: as §1

[19] = system: Enterococcus faecalis C159-6; test: First screening, agar dilution MIC
Description: as §1

[20] = system: Acinetobacter baumannii 9011; test: First screening, agar dilution MIC
Description: as §1

[21] = system: Staphylococcus warneri T12A12; test: First screening, agar dilution MIC
Description: as §1

[22] = system: Klebsiella pneumoniae 11016; test: First screening, agar dilution MIC
Description: as §1

[23] = system: Providencia stuartii 11038; test: First screening, agar dilution MIC
Description: as §1

[24] = system: Staphylococcus epidermidis 5001; test: First screening, agar dilution MIC
Description: as §1

[25] = system: Citrobacter freundii 11041; test: First screening, agar dilution MIC
Description: as §1

[26] = system: Staphylococcus aureus 8146; test: First screening, agar dilution MIC
Description: as §1

[27] = system: Mycobacterium smegmatis 5003; test: First screening, agar dilution MIC
Description: as §1

[28] = system: Streptococcus agalactiae T25-7; test: First screening, agar dilution MIC
Description: as §1

[29] = system: Pseudomonas aeruginosa 8131; test: First screening, agar dilution MIC
Description: as §1

[30] = system: Staphylococcus epidermidis 10282; test: First screening, agar dilution MIC
Description: as §1

[31] = system: Citrobacter freundii 11042; test: First screening, agar dilution MIC
Description: as §1

[32] = system: Enterobacter cloacae 11050; test: First screening, agar dilution MIC
Description: as §1

[33] = system: Acinetobacter baumannii 9010; test: First screening, agar dilution MIC
Description: as §1

[34] = system: Staphylococcus aureus 8147; test: Second screening, agar dilution MIC; conditions: Table 2
Description: as §1

[35] = system: Staphylococcus aureus T36B1; test: Second screening, agar dilution MIC
Description: as §1

[36] = system: Streptococcus agalactiae 13226; test: Second screening, agar dilution MIC
Description: as §1

[37] = system: Staphylococcus aureus T6.7; test: Second screening, agar dilution MIC
Description: as §1

[38] = system: Staphylococcus aureus T25.3; test: Second screening, agar dilution MIC
Description: as §1

[39] = system: Corynebacterium T25-17; test: Second screening, agar dilution MIC; conditions: Table 2
Description: as §1

[40] = system: Enterococcus faecalis T37A4; test: Second screening, agar dilution MIC
Description: as §1

[41] = system: Streptococcus agalactiae 13225; test: Second screening, agar dilution MIC
Description: as §1

[42] = system: Staphylococcus aureus T25.10; test: Second screening, agar dilution MIC
Description: as §1

[43] = system: Staphylococcus aureus T26A4; test: Second screening, agar dilution MIC
Description: as §1

[44] = system: Staphylococcus pettenkoferi T3.3; test: Second screening, agar dilution MIC
Description: as §1

[45] = system: Staphylococcus aureus T47A12; test: Second screening, agar dilution MIC
Description: as §1

[46] = system: Enterococcus faecalis T39-C11; test: Second screening, agar dilution MIC
Description: as §1

[47] = system: Staphylococcus aureus T25.9; test: Second screening, agar dilution MIC
Description: as §1

[48] = system: Streptococcus agalactiae T38.2; test: Second screening, agar dilution MIC
Description: as §1

[49] = system: Enterococcus faecalis T26-B7; test: Second screening, agar dilution MIC
Description: as §1

[50] = system: Staphylococcus lugdunensis T26A3; test: Second screening, agar dilution MIC; conditions: Table 2
Description: as §1

[51] = system: Enterococcus faecalis T34-2; test: Second screening, agar dilution MIC
Description: as §1

[52] = system: Staphylococcus aureus CIP 224; test: Second screening, agar dilution MIC
Description: as §1

[53] = system: Staphylococcus aureus T28.1; test: Second screening, agar dilution MIC
Description: as §1

[54] = system: Streptococcus agalactiae T40A2; test: Second screening, agar dilution MIC
Description: as §1

[55] = system: Staphylococcus epidermidis 5001; test: Second screening, agar dilution MIC; conditions: Table 2
Description: as §1

[56] = system: Streptococcus agalactiae T25.7; test: Second screening, agar dilution MIC
Description: as §1

[57] = system: Staphylococcus aureus T1.1; test: Second screening, agar dilution MIC
Description: as §1

[58] = system: Staphylococcus saprophyticus 08237; test: Second screening, agar dilution MIC
Description: as §1

CN[C@H](CC(C)C)C(=O)N[C@H]1C(=O)N[C@@H](CC(N)=O)C(=O)N[C@H]2C(=O)N[C@H]3C(=O)N[C@H](C(=O)N[C@H](C(=O)O)c4cc(O)cc(O)c4-c4cc3ccc4O)[C@H](O)c3ccc(c(Cl)c3)Oc3cc2cc(c3O[C@@H]2O[C@H](CO)[C@@H](O)[C@H](O)[C@H]2O[C@H]2C[C@](C)(N)[C@H](O)[C@H](C)O2)Oc2ccc(cc2Cl)[C@H]1O [VAN, Vancomycin]
Susceptibility to VAN [1]: S (Vancomycin (VAN) S ≤ 4)
Susceptibility to VAN [2]: S (Vancomycin (VAN) S ≤ 4)
Susceptibility to VAN [3]: R (R > 16)
Susceptibility to VAN [4]: R (R > 16)
Susceptibility to VAN [5]: R (R > 16)
Susceptibility to VAN [6]: S (Vancomycin (VAN) S ≤ 4)
Susceptibility to VAN [7]: R (R > 16)
Susceptibility to VAN [8]: S (Vancomycin (VAN) S ≤ 4)
Susceptibility to VAN [9]: R (R > 16)
Susceptibility to VAN [10]: S (Vancomycin (VAN) S ≤ 4)
Susceptibility to VAN [11]: S (Vancomycin (VAN) S ≤ 4)
Susceptibility to VAN [12]: R (R > 16)
Susceptibility to VAN [13]: R (R > 16)
Susceptibility to VAN [14]: R (R > 16)
Susceptibility to VAN [15]: R (R > 16)
Susceptibility to VAN [16]: R (R > 16)
Susceptibility to VAN [17]: R (R > 16)
Susceptibility to VAN [18]: R (R > 16)
Susceptibility to VAN [19]: S (Vancomycin (VAN) S ≤ 4)
Susceptibility to VAN [20]: R (R > 16)
Susceptibility to VAN [21]: R (R > 16)
Susceptibility to VAN [22]: R (R > 16)
Susceptibility to VAN [23]: R (R > 16)
Susceptibility to VAN [24]: S (Vancomycin (VAN) S ≤ 4)
Susceptibility to VAN [25]: R (R > 16)
Susceptibility to VAN [26]: S (Vancomycin (VAN) S ≤ 4)
Susceptibility to VAN [27]: S (Vancomycin (VAN) S ≤ 4)
Susceptibility to VAN [28]: S (Vancomycin (VAN) S ≤ 4)
Susceptibility to VAN [29]: R (R > 16)
Susceptibility to VAN [30]: S (Vancomycin (VAN) S ≤ 4)
Susceptibility to VAN [31]: R (R > 16)
Susceptibility to VAN [32]: R (R > 16)
Susceptibility to VAN [33]: R (R > 16)
Susceptibility to VAN [34]: S (Vancomycin (VAN) S ≤ 4)
Susceptibility to VAN [35]: S (Vancomycin (VAN) S ≤ 4)
Susceptibility to VAN [36]: S (Vancomycin (VAN) S ≤ 4)
Susceptibility to VAN [37]: S (Vancomycin (VAN) S ≤ 4)
Susceptibility to VAN [38]: S (Vancomycin (VAN) S ≤ 4)
Susceptibility to VAN [39]: S (Vancomycin (VAN) S ≤ 4)
Susceptibility to VAN [40]: S (Vancomycin (VAN) S ≤ 4)
Susceptibility to VAN [41]: S (Vancomycin (VAN) S ≤ 4)
Susceptibility to VAN [42]: S (Vancomycin (VAN) S ≤ 4)
Susceptibility to VAN [43]: S (Vancomycin (VAN) S ≤ 4)
Susceptibility to VAN [44]: S (Vancomycin (VAN) S ≤ 4)
Susceptibility to VAN [45]: S (Vancomycin (VAN) S ≤ 4)
Susceptibility to VAN [46]: S (Vancomycin (VAN) S ≤ 4)
Susceptibility to VAN [47]: S (Vancomycin (VAN) S ≤ 4)
Susceptibility to VAN [48]: S (Vancomycin (VAN) S ≤ 4)
Susceptibility to VAN [49]: S (Vancomycin (VAN) S ≤ 4)
Susceptibility to VAN [50]: S (Vancomycin (VAN) S ≤ 4)
Susceptibility to VAN [51]: S (Vancomycin (VAN) S ≤ 4)
Susceptibility to VAN [52]: S (Vancomycin (VAN) S ≤ 4)
Susceptibility to VAN [53]: S (Vancomycin (VAN) S ≤ 4)
Susceptibility to VAN [54]: S (Vancomycin (VAN) S ≤ 4)
Susceptibility to VAN [55]: S (Vancomycin (VAN) S ≤ 4)
Susceptibility to VAN [56]: S (Vancomycin (VAN) S ≤ 4)
Susceptibility to VAN [57]: S (Vancomycin (VAN) S ≤ 4)
Susceptibility to VAN [58]: S (Vancomycin (VAN) S ≤ 4)
